Measurements published in patent US10787443B2, “RAF-degrading conjugate compounds” (ZAMBONI CHEM SOLUTIONS INC., priority 2017, dated 2020).
Where a name gives a salt, the structure may show the parent alone.

Each compound was assayed on GST-Braf kinase domain and biotinylated E3 substrate adapter (VHL/EloB/EloC complex or CRBN318-425) (assay: Dimerization assay (AlphaScreen/AlphaLisa), RAF/E3 dimerization). Conditions: Table 15; relative value; compounds 4 fold serial dilutions from 20 μM.
Type: binding

SMILES	RAF/E3 Dimerization
Cc1ncc(NC(=O)c2cccc(C(F)(F)F)c2)cc1-c1cnc(OCc2cn(CCCCCC(=O)Nc3cccc4c3C(=O)N(C3CCC(=O)NC3=O)C4=O)nn2)c(N2CCOCC2)c1 (centres unmarked) [Compound 1.001, N-(6′-((1-(6-((2-(2,6-dioxopiperidin-3-yl)-1,3-dioxoisoindolin-4-yl)amino)-6-oxohexyl)-1H-1,2,3-triazol-4-yl)methoxy)-2-methyl-5′-morpholino-[3,3′-bipyridin]-5-yl)-3-(trifluoromethyl)benzamide]	+ +
Cc1ncc(NC(=O)c2cccc(C(F)(F)F)c2)cc1-c1cnc(OCCCCc2cn(CCCCCC(=O)Nc3cccc4c3C(=O)N(C3CCC(=O)NC3=O)C4=O)nn2)c(N2CCOCC2)c1 (centres unmarked) [Compound 1.004, N-(6′-(4-(1-(6-((2-(2,6-dioxopiperidin-3-yl)-1,3-dioxoisoindolin-4-yl)amino)-6-oxohexyl)-1H-1,2,3-triazol-4-yl)butoxy)-2-methyl-5′-morpholino-[3,3′-bipyridin]-5-yl)-3-(trifluoromethyl)benzamide]	+ (5% > RAF/E3 Dimerization)
Cc1ncc(NC(=O)c2cccc(C(F)(F)F)c2)cc1-c1cnc(OCCOCCOCCOCCOCCOCc2cn(CCCCCC(=O)Nc3cccc4c3C(=O)N(C3CCC(=O)NC3=O)C4=O)nn2)c(N2CCOCC2)c1 (centres unmarked) [Compound 1.008, N-(6′-((1-(1-(6-((2-(2,6-dioxopiperidin-3-yl)-1,3-dioxoisoindolin-4-yl)amino)-6-oxohexyl)-1H-1,2,3-triazol-4-yl)-2,5,8,11,14-pentaoxahexadecan-16-yl)oxy)-2-methyl-5′-morpholino-[3,3′-bipyridin]-5-yl)-3-(trifluoromethyl)benzamide]	+ + +

Same assay, conditions: Table 17; relative value; compounds 4 fold serial dilutions from 20 μM

SMILES	RAF/E3 Dimerization
Cc1ncc(NC(=O)c2cccc(C(F)(F)F)c2)cc1-c1cnc(OC(C)Cc2cnnn2CCCCCC(=O)Nc2cccc3c2C(=O)N(C2CCC(=O)NC2=O)C3=O)c(N2CCOCC2)c1 (racemic) [Compound 1.010, (±)-N-(6′-((1-(1-(6-((2-(2,6-dioxopiperidin-3-yl)-1,3-dioxoisoindolin-4-yl)amino)-6-oxohexyl)-1H-1,2,3-triazol-5-yl)propan-2-yl)oxy)-2-methyl-5′-morpholino-[3,3′-bipyridin]-5-yl)-3-(trifluoromethyl)benzamide]	+ (5% > RAF/E3 Dimerization)
CNc1ncc2cc(-c3cc(NC(=O)NCCOCCOCC(=O)N[C@@H](C(=O)N4C[C@H](O)C[C@H]4C(=O)N[C@@H](C)c4ccc(-c5scnc5C)cc4)C(C)(C)C)c(F)cc3C)c(C)nc2n1 [Compound 2.042, (2S,4R)-1-((R)-12-(tert-butyl)-1-((2-fluoro-4-methyl-5-(7-methyl-2-(methylamino)pyrido[2,3-d]pyrimidin-6-yl)phenyl)amino)-1,10-dioxo-5,8-dioxa-2,11-diazatridecan-13-oyl)-4-hydroxy-N—((S)-1-(4-(4-methylthiazol-5-yl)phenyl)ethyl)pyrrolidine-2-carboxamide]	+ (5% > RAF/E3 Dimerization)
O=C1CCC(N2C(=O)c3cccc(NC(=O)CCCCCn4cc(CNC(=O)c5cc(Oc6ccc(NC(=O)Nc7ccc(Cl)c(C(F)(F)F)c7)cc6)ccn5)nn4)c3C2=O)C(=O)N1 (centres unmarked) [Compound 2.024, 4-(4-(3-(4-chloro-3-(trifluoromethyl)phenyl)ureido)phenoxy)-N-((1-(6-((2-(2,6-dioxopiperidin-3-yl)-1,3-dioxoisoindolin-4-yl)amino)-6-oxohexyl)-1H-1,2,3-triazol-4-yl)methyl)picolinamide]	++ (25% > RAF/E3 Dimerization ≥ 5%)
CCCCCCNC(=O)Nc1cc(-c2cc3cnc(NCCCCc4cn(CCCCCC(=O)Nc5cccc6c5C(=O)N(C5CCC(=O)NC5=O)C6=O)nn4)nc3nc2C)c(C)cc1F (centres unmarked) [Compound 2.036, N-(2-(2,6-dioxopiperidin-3-yl)-1,3-dioxoisoindolin-4-yl)-6-(4-(4-((6-(4-fluoro-5-(3-hexylureido)-2-methylphenyl)-7-methylpyrido[2,3-d]pyrimidin-2-yl)amino)butyl)-1H-1,2,3-triazol-1-yl)hexanamide]	++ (25% > RAF/E3 Dimerization ≥ 5%)
Cc1ncc(NC(=O)c2cccc(C(F)(F)F)c2)cc1-c1cnc(O[C@@H]2CCO[C@@H](COCc3cn(CCCCCC(=O)N[C@@H](C(=O)N4C[C@H](O)C[C@H]4C(=O)N[C@@H](C)c4ccc(-c5scnc5C)cc4)C(C)(C)C)nn3)C2)c(N2CCOCC2)c1 [Compound 2.005]	++++ (75% > RAF/E3 Dimerization ≥ 50%)
O=C1CCC(N2C(=O)c3cccc(CCCOCCNC(=O)c4cc(Oc5ccc(NC(=O)Nc6ccc(Cl)c(C(F)(F)F)c6)cc5)ccn4)c3C2=O)C(=O)N1 (centres unmarked) [Compound 2.029, 4-(4-(3-(4-chloro-3-(trifluoromethyl)phenyl)ureido)phenoxy)-N-(2-(3-(2-(2,6-dioxopiperidin-3-yl)-1,3-dioxoisoindolin-4-yl)propoxy)ethyl)picolinamide]	+ (5% > RAF/E3 Dimerization)
CCC(Cc1cnnn1CCCCCC(=O)Nc1cccc2c1C(=O)N(C1CCC(=O)NC1=O)C2=O)Oc1ncc(-c2cc(NC(=O)c3cccc(C(F)(F)F)c3)cnc2C)cc1N1CCOCC1 (racemic) [Compound 1.012, (±)-N-(6′-((1-(1-(6-((2-(2,6-dioxopiperidin-3-yl)-1,3-dioxoisoindolin-4-yl)amino)-6-oxohexyl)-1H-1,2,3-triazol-5-yl)butan-2-yl)oxy)-2-methyl-5′-morpholino-[3,3′-bipyridin]-5-yl)-3-(trifluoromethyl)benzamide]	+ (5% > RAF/E3 Dimerization)
Cc1ncc(NC(=O)c2cccc(C(F)(F)F)c2)cc1-c1cnc(OCCOCCOCCOCCN[C@@H](C(=O)N2C[C@H](O)C[C@H]2C(=O)N[C@@H](C)c2ccc(-c3scnc3C)cc2)C(C)(C)C)c(N2CCOCC2)c1 [Compound 2.006, (R)-1-((2S,4R)-4-hydroxy-2-(((S)-1-(4-(4-methylthiazol-5-yl)phenyl)ethyl)carbamoyl)-pyrrolidin-1-yl)-3,3-dimethyl-N-(2-(2-(2-(2-((2′-methyl-5-morpholino-5′-(3-(trifluoro-methyl)benzamido)-[3,3′-bipyridin]-6-yl)oxy)ethoxy)ethoxy)ethoxy)ethyl)-1-oxobutan-2-aminium formate]	+ (5% > RAF/E3 Dimerization)
CCCCCCNC(=O)Nc1cc(-c2cc3cnc(NCCCCc4cn(CCCCC(=O)N[C@@H](C(=O)N5C[C@H](O)C[C@H]5C(=O)N[C@@H](C)c5ccc(-c6scnc6C)cc5)C(C)(C)C)nn4)nc3nc2C)c(C)cc1F [Compound 2.038, (2S,4R)-1-((R)-2-(5-(4-(4-((6-(4-fluoro-5-(3-hexylureido)-2-methylphenyl)-7-methylpyrido[2,3-d]pyrimidin-2-yl)amino)butyl)-1H-1,2,3-triazol-1-yl)pentanamido)-3,3-dimethylbutanoyl)-4-hydroxy-N—((S)-1-(4-(4-methylthiazol-5-yl)phenyl)ethyl)pyrrolidine-2-carboxamide]	+++ (50% > RAF/E3 Dimerization ≥ 25)
O=C1CCC(N2Cc3c(CCCCCCOCCOCCNC(=O)c4cc(Oc5ccc(NC(=O)Nc6ccc(Cl)c(C(F)(F)F)c6)cc5)ccn4)cccc3C2=O)C(=O)N1 (centres unmarked) [Compound 2.034, 4-(4-(3-(4-chloro-3-(trifluoromethyl)phenyl)ureido)phenoxy)-N-(2-(2-((6-(2-(2,6-dioxopiperidin-3-yl)-1-oxoisoindolin-4-yl)hexyl)oxy)ethoxy)ethyl)picolinamide]	++ (25% > RAF/E3 Dimerization ≥ 5%)
Cc1ncc(NC(=O)c2cccc(C(F)(F)F)c2)cc1-c1cnc(OC2CCOCC2)c(N2CCN(CCCCc3cn(CCCCCC(=O)Nc4cccc5c4C(=O)N(C4CCC(=O)NC4=O)C5=O)nn3)CC2)c1 (centres unmarked) [Compound 2.048, N-(5′-(4-(4-(1-(6-((2-(2,6-dioxopiperidin-3-yl)-1,3-dioxoisoindolin-4-yl)amino)-6-oxohexyl)-1H-1,2,3-triazol-4-yl)butyl)piperazin-1-yl)-2-methyl-6′-((tetrahydro-2H-pyran-4-yl)oxy)-[3,3′-bipyridin]-5-yl)-3-(trifluoromethyl)benzamide]	++ (25% > RAF/E3 Dimerization ≥ 5%)
O=C1CCC(N2Cc3c(CCCCCCNC(=O)c4cc(Oc5ccc(NC(=O)Nc6ccc(Cl)c(C(F)(F)F)c6)cc5)ccn4)cccc3C2=O)C(=O)N1 (centres unmarked) [Compound 2.031, 4-(4-(3-(4-chloro-3-(trifluoromethyl)phenyl)ureido)phenoxy)-N-(6-(2-(2,6-dioxopiperidin-3-yl)-1-oxoisoindolin-4-yl)hexyl)picolinamide]	+ (5% > RAF/E3 Dimerization)
CNc1ncc2cc(-c3cc(NC(=O)NCCOCCOCCOCC(=O)N[C@@H](C(=O)N4C[C@H](O)C[C@H]4C(=O)N[C@@H](C)c4ccc(-c5scnc5C)cc4)C(C)(C)C)c(F)cc3C)c(C)nc2n1 [Compound 2.041, (2S,4R)-1-((R)-15-(tert-butyl)-1-((2-fluoro-4-methyl-5-(7-methyl-2-(methylamino)pyrido[2,3-d]pyrimidin-6-yl)phenyl)amino)-1,13-dioxo-5,8,11-trioxa-2,14-diazahexadecan-16-oyl)-4-hydroxy-N—((S)-1-(4-(4-methylthiazol-5-yl)phenyl)ethyl)pyrrolidine-2-carboxamide]	+ (5% > RAF/E3 Dimerization)
Cc1ncc(NC(=O)c2cccc(C(F)(F)F)c2)cc1-c1cnc(OCCOCCOCCOCC(=O)NCCCCCCc2cccc3c2CN(C2CCC(=O)NC2=O)C3=O)c(N2CCOCC2)c1 (centres unmarked) [Compound 2.018, N-(6′-((18-(2-(2,6-dioxopiperidin-3-yl)-1-oxoisoindolin-4-yl)-11-oxo-3,6,9-trioxa-12-azaoctadecyl)oxy)-2-methyl-5′-morpholino-[3,3′-bipyridin]-5-yl)-3-(trifluoromethyl)benzamide]	++++ (75% > RAF/E3 Dimerization ≥ 50%)
